The test system of one test is WEEV California. Nature of the test: microbe, parasite or virus in culture. Format: cell-based. Conditions: Western equine encephalitis virus, Vero 76, 48 h, read-out: WEEV California EC50 nM.
In a further test the test system is VEEV TC83. Nature of the test: microbe, parasite or virus in culture. The class given is cell-based. Conditions: Venezuelan equine encephalitis virus, Vero 76, 48 h, read-out: VEEV TC83 EC50 nM.

Consider 20 compounds from patent publication US20220348558A1, “INHIBITORS OF ENCEPHALITIC ALPHAVIRUSES” (priority 2019, published 2022).

As a reminder, the EC50 is the midpoint of the concentration-response curve.

Regarding `COc1ccc(-n2c([C@H]3CCCN3)nc3ccc([N+](=O)[O-])cc3c2=O)c(F)c1` [Example 25, (R)-3-(2-fluoro-4-methoxyphenyl)-6-nitro-2-(pyrrolidin-2-yl) quinazolin-4 (3H)-one], the EC50 in the test on WEEV California is 151 to 500 nM; in the test with VEEV TC83, 51 to 150 nM.

As for `COc1ccc(-n2c(C3CCCN3C)nc3c(-c4ccc(C)nc4)cc(C#N)cc3c2=O)cc1F` (stereo not shown) [Example 111, 3-(3-fluoro-4-methoxyphenyl)-8-(6-methylpyridin-3-yl)-2-(1-methylpyrrolidin-2-yl)-4-oxo-3,4-dihydroquinazoline-6-carbonitrile], the EC50 in the test with WEEV California and with VEEV TC83 was 1 to 50 nM throughout.

Take `COc1ccc(-n2c([C@H]3CCCN3)nc3c(F)cc(C#N)cc3c2=O)cc1` [Example 78, (R)-8-fluoro-3-(4-methoxyphenyl)-4-oxo-2-(pyrrolidin-2-yl)-3,4-dihydroquinazoline-6-carbonitrile]: the EC50 in the test with WEEV California and in the test with VEEV TC83 was 51 to 150 nM throughout.

For `COc1ccc(-n2c([C@H](C)N(C)C)nc3ccc([N+](=O)[O-])cc3c2=O)cc1` [Example 208, (S)-2-(1-(dimethylamino)ethyl)-3-(4-methoxyphenyl)-6-nitroquinazolin-4 (3H)-one], the EC50 in the test on WEEV California and with VEEV TC83 was 51 to 150 nM in each case.

Take `COc1ccc(-n2c([C@H]3C[C@H](F)CN3)nc3c(C)cc(C#N)cc3c2=O)cc1F` [Example 54, 3-(3-fluoro-4-methoxyphenyl)-2-((2R,4S)-4-fluoropyrrolidin-2-yl)-8-methyl-4-oxo-3,4-dihydroquinazoline-6-carbonitrile]: the EC50 with WEEV California and with VEEV TC83 was 151 to 500 nM in each case.

In the case of `COc1c(F)cc(-n2c(C3CCCNC3)nc3c(-c4ccc(C)nc4)cc(C#N)cc3c2=O)cc1F` (stereo not shown) [Example 189, 3-(3,5-difluoro-4-methoxyphenyl)-8-(6-methylpyridin-3-yl)-4-oxo-2-(piperidin-3-yl)-3,4-dihydroquinazoline-6-carbonitrile], the concentration for a half-maximal effect (EC50) with WEEV California and in the test with VEEV TC83 was 51 to 150 nM in each case.

Take `COc1c(F)cc(-n2c(C3CCCN3)nc3c(-c4ccc(CO)nc4)cc(C#N)cc3c2=O)cc1F` (stereo not shown) [Example 180, 3-(3,5-difluoro-4-methoxyphenyl)-8-(6-(hydroxymethyl)pyridin-3-yl)-4-oxo-2-(pyrrolidin-2-yl)-3,4-dihydroquinazoline-6-carbonitrile]: the EC50 in the test with WEEV California and in the test on VEEV TC83 was 1 to 50 nM throughout.

For the compound `COc1c(F)cc(-n2c(C34CC(CN3)C4)nc3c(-c4ccnc(C)c4)cc(C#N)cc3c2=O)cc1F` [Example 173, 2-(2-azabicyclo[2.1.1]hexan-1-yl)-3-(3,5-difluoro-4-methoxyphenyl)-8-(2-methylpyridin-4-yl)-4-oxo-3,4-dihydroquinazoline-6-carbonitrile], the 50% effective concentration (EC50) in the test with WEEV California and in the test with VEEV TC83 was 51 to 150 nM each time.

`COc1ccc(-n2c(C3CCCN3)nc3c(-c4cnc5ccccc5c4)cc(C#N)cc3c2=O)cc1F` (stereo not shown) [Example 123, 3-(3-fluoro-4-methoxyphenyl)-4-oxo-2-(pyrrolidin-2-yl)-8-(quinolin-3-yl)-3,4-dihydroquinazoline-6-carbonitrile]: the EC50 with WEEV California and with VEEV TC83 was 1 to 50 nM in each case.

As to `COc1ccc(-n2c(C3CCCN3)nc3c(CCc4ccc(C)nc4)cc(C#N)cc3c2=O)cc1F` (stereo not shown) [Example 195, 3-(3-Fluoro-4-methoxyphenyl)-8-(2-(6-methylpyridin-3-yl)ethyl)-4-oxo-2-(pyrrolidin-2-yl)-3,4-dihydroquinazoline-6-carbonitrile], the EC50 with WEEV California and with VEEV TC83 was 51 to 150 nM throughout.

As to `COc1ccc(-n2c([C@H]3CCCN3)nc3c(-c4cncc(F)c4)cc([N+](=O)[O-])cc3c2=O)cc1F` [Example 93, (R)-3-(3-fluoro-4-methoxyphenyl)-8-(5-fluoropyridin-3-yl)-6-nitro-2-(pyrrolidin-2-yl) quinazolin-4 (3H)-one], the EC50 in the test with WEEV California and in the test with VEEV TC83 was 1 to 50 nM in each case.

`COc1ccc(-n2c([C@@H](C)N(C)C)nc3ccc([N+](=O)[O-])cc3c2=O)cc1` [Example 209, (R)-2-(1-(dimethylamino)ethyl)-3-(4-methoxyphenyl)-6-nitroquinazolin-4 (3H)-one]: the EC50 lay in the range of 151 to 500 nM in the test with WEEV California and 51 to 150 nM in the test on VEEV TC83.

On to `O=c1c2cc([N+](=O)[O-])ccc2nc(C2CCCN2)n1-c1ccccc1F` (stereo not shown) [Example 41, 3-(2-fluorophenyl)-6-nitro-2-(pyrrolidin-2-yl)quinazolin-4 (3H)-one], for which the results for the EC50 with WEEV California and with VEEV TC83 were greater than 1000 nM and 501 to 1000 nM, respectively.

On to `Cc1ccccc1-n1c([C@H]2CCCN2)nc2ccc([N+](=O)[O-])cc2c1=O` [Example 35, (R)-6-nitro-2-(pyrrolidin-2-yl)-3-(o-tolyl)quinazolin-4 (3H)-one], for which the concentration giving a half-maximal response (EC50) in the test with WEEV California and with VEEV TC83 was greater than 1000 nM throughout.

Regarding `COc1ccc(-n2c([C@H]3C[C@H](O)CN3)nc3c(-c4ccc(C)nc4)cc(C#N)cc3c2=O)cc1F` [Example 122, 3-(3-fluoro-4-methoxyphenyl)-2-((2R,4S)-4-hydroxypyrrolidin-2-yl)-8-(6-methylpyridin-3-yl)-4-oxo-3,4-dihydroquinazoline-6-carbonitrile], the figures for the EC50 in the test on WEEV California and with VEEV TC83 were 51 to 150 nM and 1 to 50 nM, respectively.

For the compound `COc1c(F)cc(-n2c(C3C[C@H](F)CN3)nc3c(-c4ccnc(C)c4)cc(C#N)cc3c2=O)cc1F` (stereo partly drawn) [Example 156, 3-(3,5-Difluoro-4-methoxyphenyl)-2-((4S)-4-fluoropyrrolidin-2-yl)-8-(2-methylpyridin-4-yl)-4-oxo-3,4-dihydroquinazoline-6-carbonitrile], the EC50 in the test with WEEV California lay in the range of 151 to 500 nM; with VEEV TC83 it was 1 to 50 nM.

Consider `O=c1c2cc([N+](=O)[O-])ccc2nc([C@H]2CCCN2)n1-c1ccc(OC(F)(F)F)cc1` [Example 44, (R)-6-nitro-2-(pyrrolidin-2-yl)-3-(4-(trifluoromethoxy)phenyl)quinazolin-4 (3H)-one], for which the concentration for a half-maximal effect (EC50) in the test on WEEV California and in the test with VEEV TC83 was greater than 1000 nM each time.

Consider `COc1ccc(-n2c([C@H]3C[C@H](F)CN3)nc3c(C)cc([N+](=O)[O-])cc3c2=O)cc1F` [Example 62, 2-((2R,4S)-4-fluoropyrrolidin-2-yl)-3-(3-fluoro-4-methoxyphenyl)-8-methyl-6-nitroquinazolin-4 (3H)-one], for which the EC50 in the test on WEEV California and with VEEV TC83 was 51 to 150 nM throughout.

Take `Cc1ccc(-c2cc(C#N)cc3c(=O)n(-c4ccc(N(C)C)c(F)c4)c(C4CCCN4)nc23)cn1` (stereo not shown) [Example 145, 3-(4-(Dimethylamino)-3-fluorophenyl)-8-(6-methylpyridin-3-yl)-4-oxo-2-(pyrrolidin-2-yl)-3,4-dihydroquinazoline-6-carbonitrile]: the EC50 fell in the range of 151 to 500 nM in the test with WEEV California and 1 to 50 nM in the test with VEEV TC83.

For `COc1c(F)cc(-n2c(C3CCCN3)nc3c(-c4ccc(C(C)(C)O)cc4)cc(C#N)cc3c2=O)cc1F` (stereo not shown) [Example 171, 3-(3,5-difluoro-4-methoxyphenyl)-8-(4-(2-hydroxypropan-2-yl)phenyl)-4-oxo-2-(pyrrolidin-2-yl)-3,4-dihydroquinazoline-6-carbonitrile], the EC50 with WEEV California and with VEEV TC83 was 51 to 150 nM each time.
